Source: patent publication US12257251B2, “Use of FAK inhibitor in preparation of drug for treating tumors having NRAS mutation” (INXMED (NANJING) CO., LTD., priority 2019, dated 2025)

What was measured:
[1] = Body weight change (tolerability) in the KYSE-270 xenograft study; type: in vivo, mouse; details: for Change in median weight: BI853520 50 mg/Kg qd, day 13 versus day 1
Experimental: 1.7. Monitoring tumor growth and side effects: Tumor diameters were measured with calipers three times a week. The volume [mm^3] of each tumor was calculated according to the equation “tumor volume=length×diameter^2×π/6”. To monitor the side effects of the treatment, the mice were checked daily for abnormalities and their body weights were measured three times a week. For ethical reasons, animals with tumors larger than 1.5 cm in diameter, ulcerated tumors, or 20% body weight loss were euthanized.
The wilcoxon test was used for comparison. For body weight, the percent change relative to initial body weight on day 1 was used as the target variable for statistical analysis. The number of animals, and the median, minimum and maximum weight changes in each group were calculated.
One-sided test to compare all treatment groups with control group was performed for observing: • reduction in tumor volume (inhibition of tumor growth, efficacy parameter) and • reduction in weight changes (weight loss, tolerance parameters).
Within each subtopic, p-values for the efficacy parameter were compared and adjusted for multiple times according to Bonferroni-Holm. The p-value for the tolerance parameter was kept constant so as not to overlook possible side effects. Significance level was fixed at α=5%. A p-value (adjusted) of less than 0.05 was considered to show a statistically significant difference between groups, and 0.05≤p-value<0.10 was considered as an indicative difference. Statistical evaluations were performed using the SAS software package version 9.4 (SAS Institute Inc., Cary NC, USA).

[2] = in vivo
[3] = test system: GAK (NRAS^Q61L) melanoma cell line; assay: GAK CDX model (melanoma with an NRAS mutation): tumor growth; type: in vivo, mouse; details: for Tumor growth compared to the control group (in words): GAK model, daily treatment; for Mean TGI: daily, based on relative tumor volume on day 14
Experimental: 1.1. Test compound: BI853520, which was synthesized according to the method in the patent WO2010058032. BI853520 was formulated with 0.5% hydroxyethyl cellulose (Ashland).
1.2. Cells: The melanoma cell line GAK was purchased from JCRB Cell Bank, and HMVII cells were purchased from Sigma. GAK originated in the inguinal lymph nodes of patients with vaginal melanoma, whereas HMVII originated in primary vaginal melanoma. GAK and HMVII cells were cultured in tissue culture flasks containing 5% CO2 at 37° C. The media were Ham's F12 containing 10% heat-inactivated FBS and Ham's F10 containing 15% FBS, respectively. All media were supplemented with 100 U/mL penicillin, […] streptomycin, and 2 mM GlutaMAX. All cell culture reagents were purchased from GIBCO.
Both HMVII and GAK cell lines carried an NRAS mutation at the Q61 position. HMVII (NRAS^Q61K) and GAK (NRAS^Q61L)
1.3. Mice: 4-week-old female balb/c nude mice (purchased from Beijing Vital River Laboratory Animal Technology Co., Ltd.). After arriving in the animal room, the mice were allowed to acclimate to the new environment for at least 2 weeks before being used for assay. The animals were housed under standard conditions (temperature: 21.5±1.5° C., humidity: 55±10%). A Standard diet and autoclaved tap water were provided ad libitum. All animal care and experimental procedures were performed in accordance with the animal care ethics guidelines approved by the Medical Ethics Committee of Beijing Cancer Hospital and Research Institute.
To establish subcutaneous tumors, HMVII and GAK cells were harvested by trypsinization, centrifuged, washed and resuspended in ice-cold PBS+5% FCS. Then 100 l of the cell suspension containing 5×10^6 cells was injected subcutaneously into the right flank of nude mice (1 site per mouse). When tumors were well established and reached a median volume of approximately 400-600 mm^3, mice were randomly assigned to the treatment group and the control group.
1.5. Administration: BI 853520 was formulated in 0.5% hydroxyethyl cellulose, which was intragastrically administered through gavage needle every day, and the dosage was 10 mL/Kg body weight.
Tumor diameters were measured twice a week with calipers. The volume [mm^3] of each tumor was calculated according to the equation “tumor volume=length×diameter^2×π/6”. Animals were sacrificed at the end of the study (approximately two weeks after the start of treatment). During the study, animals with necrotic tumors or tumors exceeding 2000 mm^3 in size were sacrificed for ethical reasons.
Tumor volumes were statistically assessed at the end of the assay. For tumor volume, relative values were used.
The number of observations, and the median, minimum and maximum tumor volumes were calculated. For a quick overview of possible treatment effects, the following metrics were calculated: • Relative tumor volume: (T/C)
[formula] • TGI from day 1 to day d: TGI=100×[(Cd−C1)−(Td−T1)]/(Cd−C1) • wherein, C1, T1=mean relative tumor volume in control and treatment groups at the start of the assay (day 1); • Cd, Td=mean relative tumor volume in control and treatment groups at the end of the assay (day d).
Statistical evaluation was performed using the Student's t-test function in Microsoft Excel, using two-tailed distribution and two-sample equal variance type.
The significance level was fixed at α=5%. […]

Compound: COc1cc(C(=O)NC2CCN(C)CC2)c(F)cc1Nc1ncc(C(F)(F)F)c(Oc2cccc3c2C(=O)N(C)C3)n1 [BI853520]
- Change in median weight ([1]; 50 mg/kg): +2.8%
- Change in median weight ([1]; listed as BI 853520, 50 mg/kg): 2.8%
- Tolerability (in words) ([1]; BI 853520 50 mg/kg): well tolerated
- Highest daily dose without limiting toxicity [2]: 100 mg/kg
- Tumor growth compared to the control group (in words) [3]: inhibit tumor growth
- Tumor growth compared to the control group (in words) ([3]; listed as BI 853520): delayed tumor growth
- Mean tumor volume ([3]; GAK, 50 mg/kg (1st week), 25 mg/kg (2nd week), daily gavage, day 14): 548 ± 144 mm^3
- Mean TGI ([3]; GAK, 50 mg/kg (1st week), 25 mg/kg (2nd week)): 80%
- Mean TGI ([3]; GAK, 50 mg/kg (1st week), 25 mg/kg (2nd week), listed as BI 853520): 80%
